Results reported in patent US9082528B2, “Method for making carbon nanotube-loaded electrode, carbon nanotube-loaded electrode made by the method, and applications thereof” (priority 2011, dated 2015).

Tested on: acetylcholine esterase (AChE)
Experiment: Electrochemical (CV) inhibition of AChE activity on AChE/ChO/POD/CNT/DEN(PtNP)s-loaded SPCGC electrode
Format: biochemical
Details: for I x/Io: anodic peak current, 10 mM phosphate buffer pH 7.4 with ACh
Description: AChE, ChO and POD enzymes were adsorbed on CNT/DEN(PtNP)s-loaded SPCGC electrode. The aqueous solution containing AChE/ChO/POD was dropped on the CNT/DEN(PtNP)s-loaded SPCGC surface and the adsorption was allowed to occur for 24 hours. The AChE-ChO-POD-adsorbed CNT/DEN(PtNP)s-loaded (AChE/ChO/POD/CNT/DEN(PtNP)s-loaded) SPCGC DEP chip was stored at 4° C. till use.
Electrochemical detection of a DZN compound on the AChE/ChO/POD/CNT/DEN(PtNP)s-loaded SPCGC electrode was performed on a CV (a Hokuto-Denko HZ-3000) apparatus in the potential range of −0.6 to 1 V at a scan rate of 20 mVs^−1 in a phosphate buffer solution. All the measurements were carried out at room temperature in 2 cm^3 of a test solution, which has to cover the circular working electrode area of the sensors supported vertically during the CV measurement. The anodic oxidation peak at 0.06-0.1 V was used to evaluate the inhibition of AChE activity by DZN. The enzyme inhibition was calculated according to the following equation (Equation 1) (Dounin et al., Analytica Chimica Acta 2010, 669, 63-67): % inhibition=100(Io−Ix)/Io [Equation 1], wherein Io is the anodic peak current of oxidation at 0.06-0.1 V of a control sample in the absence of DZN, while Ix refers to the peak current of DZN-containing samples.
For the electrochemical detection of DZN compound, CNT/DEN(PtNP)s hybrids at M:D 0.4:1 was fabricated onto the SPCGC electrode. Then, an AChE/ChO/POD/CNT/DEN(PtNP)s-loaded SPCGC biosensor was developed by loading 10 mm^3 of 2.21 U of AChE, 4.3 U of ChO and 44.7 U of POD on the CNT/DEN(PtNP)s-loaded SPCGC electrode. The bioactivity of the AChE/ChO/POD/CNT/DEN(PtNP)s-loaded SPCGC biosensor was investigated by CV at room temperature.
The approach for determination of one (DZN) of organophosphate pesticides by this biosensor is based on the inhibition of AChE activity. In the absence of DZN, AChE hydrolyzes Ach to acetic acid and choline (Ch) (Lin et al., Electroanalysis, 2004, 16(1-2), 145-149):
The inhibition of AChE activity by DZN was determined by measuring the oxidation or reduction current of H2O2 which is correlated to the concentration of Ch produced by AChE.
This anodic oxidation peak is attributed to the oxidation of hydrogen peroxide (H2O2) generated from the enzymatic reaction of AChE and ChO. The peak potential of H2O2 oxidation by the present electrode was lower than by an AChE/ChO/CNT electrode (0.50 V) (Lin et al., Electroanalysis, 2004, 16(1-2), 145-149). […] Meanwhile, a very small reduction peak around −0.2 V was also observed at only the first CV scan. This peak is attributed to the reduction of the generated H2O2 by POD. […] Therefore, the inhibition of AChE by DZN can be determined by the decrease in the oxidation current at 0.09 V.
The obtained currents of anodic oxidation peak were utilized to evaluate the enzyme activity, […], and the inhibition value, (Io−Ix)/Io, where Io and Ix are current densities in ACh solutions without and with DZN.

**Q.** With `CCOP(=S)(OCC)Oc1cc(C)nc(C(C)C)n1` [DZN, O,O-diethyl 0-2-isopropyl-6-methyl(pyrimidine-4-yl)phosphorothioate] as the compound, how does the “% Enzyme Activity” value (DZN 0.05 ppm) read?
**A.** 78.6%

**Q.** What about the “% Inhibition” value (DZN 0.05 ppm) of the same compound?
**A.** 21.4%

**Q.** And the “[Io-Ix]/Io” value (DZN 0.05 ppm)?
**A.** 0.214

**Q.** What about the “I x/Io” value (DZN 0.05 ppm) of the same compound?
**A.** 0.785

**Q.** What about the “% Enzyme Activity” value (DZN 0.1 ppm) of the same compound?
**A.** 59.1%

**Q.** And the “% Inhibition” value (DZN 0.1 ppm)?
**A.** 40.9%

**Q.** And the “[Io-Ix]/Io” value (DZN 0.1 ppm)?
**A.** 0.409

**Q.** What about the “I x/Io” value (DZN 0.1 ppm) of the same compound?
**A.** 0.590

**Q.** What about the “% Enzyme Activity” value (DZN 0.5 ppm) of the same compound?
**A.** 52.5%

**Q.** And the “% Inhibition” value (DZN 0.5 ppm)?
**A.** 47.6%

**Q.** What about the “[Io-Ix]/Io” value (DZN 0.5 ppm) of the same compound?
**A.** 0.475

**Q.** What about the “I x/Io” value (DZN 0.5 ppm) of the same compound?
**A.** 0.524

**Q.** What about the “% Enzyme Activity” value (DZN 1 ppm) of the same compound?
**A.** 17.2%

**Q.** And the “% Inhibition” value (DZN 1 ppm)?
**A.** 82.8%

**Q.** What about the “[Io-Ix]/Io” value (DZN 1 ppm) of the same compound?
**A.** 0.828

**Q.** And the “I x/Io” value (DZN 1 ppm)?
**A.** 0.171

**Q.** What about the “% Enzyme Activity” value (DZN 5 ppm) of the same compound?
**A.** 23.2%

**Q.** What about the “% Inhibition” value (DZN 5 ppm) of the same compound?
**A.** 76.8%

**Q.** What about the “[Io-Ix]/Io” value (DZN 5 ppm) of the same compound?
**A.** 0.768

**Q.** What about the “I x/Io” value (DZN 5 ppm) of the same compound?
**A.** 0.231

**Q.** And the “% Enzyme Activity” value (DZN 10 ppm)?
**A.** 13.4%

**Q.** And the “% Inhibition” value (DZN 10 ppm)?
**A.** 86.6%

**Q.** And the “[Io-Ix]/Io” value (DZN 10 ppm)?
**A.** 0.866

**Q.** What about the “I x/Io” value (DZN 10 ppm) of the same compound?
**A.** 0.133
